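Tested at 5 concentrations; 48 h exposure; 96-well plates; endpoints linearly interpolated, else capped at highest concentration. Here, GI50 denotes the concentration required for 50% inhibition of growth.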 Activity calls are given as the source filed them. Rule as the data show it: active = GI50 up to about 1.1 µM and inactive = higher.
How the values were obtained:
Assay in all cases: NCI-60 cell line screen, 48 h
SN12C = system: SN12C
UACC-257 = system: UACC-257
SF-295 = system: SF-295
MOLT-4 = system: MOLT-4
SK-MEL-28 = system: SK-MEL-28
MDA-N = system: MDA-N
SK-MEL-2 = system: SK-MEL-2
A498 = system: A498
NCI-H460 = system: NCI-H460
MDA-MB-231 = system: MDA-MB-231
TK-10 = system: TK-10
SNB-75 = system: SNB-75
PC-3 = system: PC-3
IGROV-1 = system: IGROV-1
Malme-3M = system: Malme-3M
OVCAR-3 = system: OVCAR-3
UACC-62 = system: UACC-62
SF-539 = system: SF-539
DU-145 = system: DU-145
SW-620 = system: SW-620

SMILES	GI50 (SN12C)	GI50 (UACC-257)	GI50 (SF-295)	GI50 (MOLT-4)	GI50 (SK-MEL-28)	GI50 (MDA-N)	GI50 (SK-MEL-2)	GI50 (A498)	GI50 (NCI-H460)	GI50 (MDA-MB-231)	GI50 (TK-10)	GI50 (SNB-75)	GI50 (PC-3)	GI50 (IGROV-1)	GI50 (Malme-3M)	GI50 (OVCAR-3)	GI50 (UACC-62)	GI50 (SF-539)	GI50 (DU-145)	GI50 (SW-620)
NNC(=O)CSc1nc2ccccc2c(=O)n1N	37.8 µM (inactive)	> 100 µM (inactive)	31.4 µM (inactive)	> 100 µM (inactive)	> 100 µM (inactive)	> 100 µM (inactive)	17.6 µM (inactive)	> 100 µM (inactive)	57.1 µM (inactive)	17.3 µM (inactive)	16.3 µM (inactive)	13.5 µM (inactive)	> 100 µM (inactive)	> 100 µM (inactive)	46.7 µM (inactive)	> 100 µM (inactive)	27.6 µM (inactive)	31 µM (inactive)	> 100 µM (inactive)	> 100 µM (inactive)
C=C(Cl)[C@@](Cl)(CBr)CC[C@@H](Br)C(C)(C)Cl	2.11 µM (inactive)	0.557 µM (active)	0.207 µM (active)	22.9 µM (inactive)	0.394 µM (active)	0.255 µM (active)	0.458 µM (active)	0.938 µM (active)	0.108 µM (active)	0.211 µM (active)	0.269 µM (active)	0.24 µM (active)	0.555 µM (active)	11.7 µM (inactive)	21.7 µM (inactive)	0.506 µM (active)	0.745 µM (active)	0.141 µM (active)	0.664 µM (active)	0.321 µM (active)
COC(CN(C)C(=S)Nc1cccc2ccccc12)OC	> 10 µM (inactive)	> 10 µM (inactive)	> 10 µM (inactive)	> 10 µM (inactive)	> 10 µM (inactive)	> 10 µM (inactive)	> 10 µM (inactive)	> 10 µM (inactive)	> 10 µM (inactive)	> 10 µM (inactive)	> 10 µM (inactive)	> 10 µM (inactive)	> 10 µM (inactive)	> 10 µM (inactive)	> 10 µM (inactive)	> 10 µM (inactive)	> 10 µM (inactive)	> 10 µM (inactive)	> 10 µM (inactive)	> 10 µM (inactive)
NNC(=O)CC(=O)Nc1cccc(Cl)c1	> 100 µM (inactive)	25.3 µM (inactive)	> 100 µM (inactive)	> 100 µM (inactive)	> 100 µM (inactive)	> 100 µM (inactive)	> 100 µM (inactive)	> 100 µM (inactive)	> 100 µM (inactive)	> 100 µM (inactive)	> 100 µM (inactive)	> 100 µM (inactive)	> 100 µM (inactive)	> 100 µM (inactive)	> 100 µM (inactive)	> 100 µM (inactive)	> 100 µM (inactive)	> 100 µM (inactive)	> 100 µM (inactive)	> 100 µM (inactive)
[N-]=[N+]=CC(=O)C1CCCN1C(=O)c1ccccc1 (stereo not given)	> 10 µM (inactive)	> 10 µM (inactive)	> 10 µM (inactive)	> 10 µM (inactive)	> 10 µM (inactive)	> 10 µM (inactive)	> 10 µM (inactive)	> 10 µM (inactive)	> 10 µM (inactive)	> 10 µM (inactive)	> 10 µM (inactive)	0.585 µM (active)	> 10 µM (inactive)	> 10 µM (inactive)	> 10 µM (inactive)	> 10 µM (inactive)	> 10 µM (inactive)	> 10 µM (inactive)	> 10 µM (inactive)	> 10 µM (inactive)

— ChEMBL document CHEMBL1201862, “PubChem BioAssay data set” (2004)
